Test results as given in patent publication US8344010B2, “Fused imidazole derivatives as TRPV3 antagonist” (Glenmark Pharmaceuticals S.A., priority 2008, dated 2013).

Target: T1, Human TRPV3 (Homo sapiens, UniProt Q8NET8)
T1 construct: expressed in transfected cells; host or cells: CHO cells (selected with G-418)
T1 sequence (Q8NET8 1-790): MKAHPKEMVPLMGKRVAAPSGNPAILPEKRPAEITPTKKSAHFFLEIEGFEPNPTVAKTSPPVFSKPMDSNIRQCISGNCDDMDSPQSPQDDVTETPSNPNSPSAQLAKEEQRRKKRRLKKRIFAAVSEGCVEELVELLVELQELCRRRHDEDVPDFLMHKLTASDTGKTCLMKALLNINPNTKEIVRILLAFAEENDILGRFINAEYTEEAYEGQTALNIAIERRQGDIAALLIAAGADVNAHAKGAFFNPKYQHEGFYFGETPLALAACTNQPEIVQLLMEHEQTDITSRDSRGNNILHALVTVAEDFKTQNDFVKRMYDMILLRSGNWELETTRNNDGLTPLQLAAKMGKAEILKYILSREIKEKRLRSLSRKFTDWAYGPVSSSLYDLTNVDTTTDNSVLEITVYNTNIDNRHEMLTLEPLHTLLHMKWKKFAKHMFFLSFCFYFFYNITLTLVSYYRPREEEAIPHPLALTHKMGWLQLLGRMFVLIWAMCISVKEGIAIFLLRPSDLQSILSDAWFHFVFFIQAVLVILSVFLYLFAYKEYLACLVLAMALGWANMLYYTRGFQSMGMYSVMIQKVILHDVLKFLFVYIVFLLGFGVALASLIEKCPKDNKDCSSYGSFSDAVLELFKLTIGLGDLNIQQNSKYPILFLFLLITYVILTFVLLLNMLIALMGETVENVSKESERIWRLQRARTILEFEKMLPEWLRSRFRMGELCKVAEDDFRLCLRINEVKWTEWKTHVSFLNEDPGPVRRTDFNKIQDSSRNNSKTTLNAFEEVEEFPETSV
Assay: 45Calcium uptake assay: inhibition of 2-APB induced cellular uptake of radioactive calcium
Type: cell-based
Conditions: human TRPV3 expressing CHO cells, 2-APB 500 μM; for inhibition at 1 µM: 1 μM test compound, read-out: Percentage Inhibition (1 μM); for inhibition at 10 µM: 10 μM test compound, read-out: Percentage Inhibition (10 μM); for IC50: class symbol
Text: The illustrative examples of the present invention are screened for TRPV3 activity according to a modified procedure described in Tóth, A., Kedei, N., Wang, Y. and Blumberg, P. M. Life Sciences (2003), 73, 487-498. The screening of the compounds can be carried out by other methods and procedures known to a person skilled in the art. Such screening methods may be found in (a) Hu, H.-Z. et al. J. Biol. Chem. (2004), 279, 35741-35747; (b) Smith, G. D. et al. Nature (2002), 418, 186-190; (c) Peier, A. M. et al. Science (2002), 296, 2046-2049.
Screening for TRPV3 antagonist using the ^45Calcium uptake assay The inhibition of TRPV3 receptor activation was followed as inhibition of 2-aminoethoxydiphenylborate (2-APB) induced cellular uptake of radioactive calcium. Test compounds were dissolved in dimethyl sulfoxide (DMSO) to prepare 20 mM stock solution and then diluted using plain medium with DMEM/F-12 containing 1.8 mM CaCl2 to get desired concentration. Final concentration of DMSO in the reaction was 0.5% (v/v). Human TRPV3 expressing CHO cells were grown in DMEM/F-12 medium with 10% FBS, 1% penicillin-streptomycin solution, 400 μg/ml of G-418. Cells were seeded 24 h prior to the assay in 96 well plates so as to get ˜50,000 cells per well on the day of experiment. Cells were treated with test compounds for 10 minutes followed by addition of 2-APB at a final concentration of 500 μM and 5 μCi/ml^45Ca^+2 for 4 minutes. Cells were washed and lysed using buffer containing 1% Triton X-100, 0.1% deoxycholate and 0.1% SDS. Radioactivity in the lysate was measured in Packardt Top count after addition of liquid scintillant. Concentration response curves were plotted as a % of maximal response obtained in the absence of test antagonist. IC50 value was calculated from concentration response curve by nonlinear regression analysis using GraphPad PRISM software.
Percentage inhibition at concentrations of 1.0 μM and 10.0 μM are given in the table along with IC50 details for selected examples.

SMILES | inhibition at 1 µM [%] | inhibition at 10 µM [%] | IC50 [nM]
COc1cccc(/C=C/c2nc3ccccc3n2-c2ncccc2C(F)(F)F)c1OC1CCCC1 [Example 24, 2-[(E)-2-(2-Cyclopentyloxy-3-methoxyphenyl)vinyl]-1-[3-(trifluoromethyl)pyridin-2-yl]-1H-benzimidazole] | 84.7 | 98 | > 500
COc1cccc(/C=C/c2nc3ccccc3n2-c2ccc(C(F)(F)F)cn2)c1OC(C)C [Example 25, 2-[(E)-2-(2-Isopropoxy-3-methoxyphenyl)vinyl]-1-(5-trifluoromethylpyridin-2-yl)-1H-benzimidazole] | 86.7 | 97.5 | 100 to 500
COc1cccc(/C=C/c2nc3ccccc3n2-c2ccc(C(F)(F)F)cn2)c1OCC1CC1 [Example 26] | 70.6 | 91.6 | > 500
COc1cccc(/C=C/c2nc3ccccc3n2-c2ccc(C(F)(F)F)cn2)c1OC1CCCC1 [Example 27, 2-[(E)-2-(2-Cyclopentyloxy-3-methoxyphenyl)vinyl]-1-[5-(trifluoromethyl)pyridin-2-yl]-1H-benzimidazole] | 41.8 | 94.7 | –
COc1cccc(/C=C/c2nc3ccccc3n2-c2ccc(C(F)(F)F)cn2)c1OCc1ccccc1 [Example 28, 2-[(E)-2-(2-Benzyloxy-3-methoxyphenyl)vinyl]-1-[5-(trifluoromethyl)pyridin-2-yl]-1H-benzimidazole] | 77.1 | 92.6 | 100 to 500
COc1cccc(/C=C/c2nc3ccccc3n2-c2ncc(C(F)(F)F)cc2Cl)c1OC1CCCC1 [Example 29, 1-[3-Chloro-5-(trifluoromethyl)pyridin-2-yl]-2-[(E)-2-(2-cyclopentyloxy-3-methoxyphenyl)vinyl]-1H-benzimidazole] | 78.8 | 93.6 | 100 to 500
COC(=O)c1ccc(-n2c(/C=C/c3cccc(OC)c3OC3CCCC3)nc3ccccc32)nc1 [Example 30, Methyl 6-(2-{(E)-2-[2-(Cyclopentyloxy)-3-methoxyphenyl]vinyl}-1H-benzimidazol-1-yl)nicotinate] | 16.4 | 27.5 | –
COc1cccc(/C=C/c2nc3ccccc3n2-c2ccc(C)cc2)c1OCC1CC1 [Example 31, 2-[(E)-2-(2-Cyclopropylmethoxy-3-methoxyphenyl)vinyl]-1-(4-methylphenyl)-1H-benzimidazole] | 47.3 | 86.6 | –
COc1ccccc1-n1c(/C=C/c2cccc(OC)c2OC2CCCC2)nc2ccccc21 [Example 32, 2-[(E)-2-(2-Cyclopentyloxy-3-methoxyphenyl)vinyl]-1-(2-methoxyphenyl)-1H-benzimidazole] | 9.07 | 0 | –
COc1cccc(/C=C/c2nc3ccccc3n2-c2ccc(C#N)cc2)c1OCC1CC1 [Example 33, 4-{2-[(E)-2-(2-Cyclopropylmethoxy-3-methoxyphenyl)vinyl]-1H-benzimidazol-1-yl}benzonitrile] | 78.2 | 95.3 | 100 to 500
COc1cccc(/C=C/c2nc3ccccc3n2-c2ccc(C#N)cc2)c1OCc1ccccc1 [Example 34, 4-{2-[(E)-2-(2-Benzyloxy-3-methoxyphenyl)vinyl]-1H-benzimidazol-1-yl}benzonitrile] | 69.9 | 86.8 | > 500
COc1cccc(/C=C/c2nc3ccccc3n2-c2ccc(C(F)(F)F)cc2)c1OC1CCCC1 [Example 35, 2-[(E)-2-(2-Cyclopentyloxy-3-methoxyphenyl)vinyl]-1-[4-(trifluoromethyl)phenyl]-1H-benzimidazole] | 54.3 | 77.8 | –
CCCCOc1c(/C=C/c2nc3ccccc3n2-c2ccc(C#N)cc2)cccc1OC [Example 36, 4-{2-[(E)-2-(2-Butoxy-3-methoxyphenyl)vinyl]-1H-benzimidazol-1-yl}benzonitrile] | 82.8 | 96 | 100 to 500
COc1cccc(/C=C/c2nc3ccccc3n2-c2ccc(C(F)(F)F)cc2)c1OCC1CC1 [Example 37, 2-[(E)-2-(2-Cyclopropylmethoxy-3-methoxyphenyl)vinyl]-1-[4-(trifluoromethyl)phenyl]-1H-benzimidazole] | 72.2 | 84.6 | 100 to 500
COc1cccc(/C=C/c2nc3ccccc3n2-c2ccc(F)c(C#N)c2)c1OCC1CC1 [Example 38] | 48.3 | 59.2 | –
COc1cccc(/C=C/c2nc3ccccc3n2-c2ccc(C#N)cc2F)c1OCC1CC1 [Example 39, 4-{2-[(E)-2-(2-Cyclopropylmethoxy-3-methoxyphenyl)vinyl]-1H-benzimidazol-1-yl}-3-fluorobenzonitrile] | 76.8 | 94.2 | 100 to 500
COc1cccc(/C=C/c2nc3ccccc3n2Cc2ccc(C(C)(C)C)cc2)c1OC1CCCC1 [Example 40, 2-[(E)-2-(2-Cyclopentyloxy-3-methoxyphenyl)vinyl]-1-(4-tert-butylbenzyl)-1H-benzimidazole] | 11.7 | 12.3 | –
COc1cccc(/C=C/c2nc3ccccc3n2Cc2ccc(F)cc2F)c1OCC1CC1 [Example 41, 1-(2,4-Difluorobenzyl)-2-[(E)-2-(2-cyclopropylmethoxy-3-methoxyphenyl)vinyl]-1H-benzimidazole] | 57.7 | 86.5 | –
COc1cccc(/C=C/c2nc3ccccc3n2Cc2ccc(C#N)cc2)c1OCC1CC1 [Example 42, 4-({2-[(E)-2-(2-Cyclopropylmethoxy-3-methoxyphenyl)vinyl]-1H-benzimidazol-1-yl}methyl)benzonitrile] | 60.2 | 87.3 | –
COc1cccc(/C=C/c2nc3ccccc3n2Cc2ccc(C#N)cc2)c1OC1CCCC1 [Example 43, 4-({2-[(E)-2-(2-Cyclopentyloxy-3-methoxyphenyl)vinyl]-1H-benzimidazol-1-yl}methyl)benzonitrile] | 88.8 | 97.5 | 100 to 500
COc1cccc(/C=C/c2nc3ccccc3n2Cc2ccc(C#N)cc2)c1OCc1ccccc1F [Example 44, 4-({2-[(E)-2-(2-{2-Fluorobenzyloxy}-3-methoxyphenyl)vinyl]-1H-benzimidazol-1-yl}methyl)benzonitrile] | 60 | 87.1 | –
COc1cccc(/C=C/c2nc3ccccc3n2-c2cccs2)c1OCC1CC1 [Example 45, 2-[(E)-2-(2-Cylopropymethoxy-3-methoxyphenyl)]-1-(2-thienyl)-1H-benzimidazole] | 43.4 | 83.8 | –
COc1cccc(/C=C/c2nc3ccccc3n2-c2nccs2)c1OCC1CC1 [Example 46] | 16.1 | 81.1 | –
COc1cccc(/C=C/c2nc3ccccc3n2-c2nccs2)c1OC1CCCC1 [Example 47, 2-[(E)-2-(2-Cyclopentyloxy-3-methoxyphenyl)vinyl]-1-(1,3-thiazol-2-yl)-1H-benzimidazole] | 22.4 | 79.7 | –
